# “And” between values parts separate entries of the source, which are not always exact repeats. Equal values may be shown once.
# Assays:
# Rattus norvegicus [1] = organism: Rattus norvegicus; assay type: functional; settings: dose 10.1 mg/kg
# Rattus norvegicus [2] = organism: Rattus norvegicus; assay type: functional; settings: dose 10.1 mg/kg; remark: listed apart in the source
# Rattus norvegicus [3] = organism: Rattus norvegicus; assay type: functional; settings: dose 10.1 mg/kg; remark: listed apart in the source
# Rattus norvegicus [4] = organism: Rattus norvegicus; assay type: functional; settings: dose 10.1 mg/kg; remark: listed apart in the source
# Rattus norvegicus [5] = organism: Rattus norvegicus; assay type: functional; settings: dose 10.1 mg/kg; remark: listed apart in the source
# Rattus norvegicus [6] = organism: Rattus norvegicus; assay type: functional; settings: dose 10.1 mg/kg; remark: listed apart in the source
# Rattus norvegicus [7] = organism: Rattus norvegicus; assay type: functional; settings: dose 10 mg/kg
# Aromatase = molecular target: T1, Aromatase (Rattus norvegicus, UniProt P22443)
# T1 sequence (P22443 whole entry): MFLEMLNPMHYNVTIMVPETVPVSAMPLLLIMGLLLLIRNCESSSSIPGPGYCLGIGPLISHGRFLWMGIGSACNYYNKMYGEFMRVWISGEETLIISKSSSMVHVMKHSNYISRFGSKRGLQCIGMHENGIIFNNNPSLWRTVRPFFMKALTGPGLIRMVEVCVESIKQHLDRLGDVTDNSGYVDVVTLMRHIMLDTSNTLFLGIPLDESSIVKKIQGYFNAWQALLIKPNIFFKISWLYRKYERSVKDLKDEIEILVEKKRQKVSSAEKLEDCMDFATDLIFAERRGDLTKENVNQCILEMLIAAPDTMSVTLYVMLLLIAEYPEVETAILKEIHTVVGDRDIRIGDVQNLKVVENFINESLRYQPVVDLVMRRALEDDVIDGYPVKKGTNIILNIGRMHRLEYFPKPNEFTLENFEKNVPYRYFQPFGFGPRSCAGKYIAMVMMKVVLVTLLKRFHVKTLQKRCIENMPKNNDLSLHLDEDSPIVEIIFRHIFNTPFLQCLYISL
# Rattus norvegicus [8] = organism: Rattus norvegicus; settings: Heart right ventricle
# Rattus norvegicus [9] = organism: Rattus norvegicus; settings: Heart right ventricle; remark: listed apart in the source
# Rattus norvegicus [10] = organism: Rattus norvegicus; settings: Ovarian vein
# Rattus norvegicus [11] = organism: Rattus norvegicus; settings: Heart right ventricle; remark: listed apart in the source
# Rattus norvegicus [12] = organism: Rattus norvegicus; settings: Heart right ventricle; remark: listed apart in the source
# Rattus norvegicus [13] = organism: Rattus norvegicus; settings: Heart right ventricle; remark: listed apart in the source
# Rattus norvegicus [14] = organism: Rattus norvegicus; settings: Heart right ventricle; remark: listed apart in the source
# Rattus norvegicus [15] = organism: Rattus norvegicus; settings: Heart right ventricle; remark: listed apart in the source
# Rattus norvegicus [16] = organism: Rattus norvegicus; settings: Heart right ventricle; remark: listed apart in the source
# Rattus norvegicus [17] = organism: Rattus norvegicus; settings: Heart right ventricle; remark: listed apart in the source
# Rattus norvegicus [18] = organism: Rattus norvegicus; settings: Heart right ventricle; remark: listed apart in the source
# Rattus norvegicus [19] = organism: Rattus norvegicus; settings: Heart right ventricle; remark: listed apart in the source
# Rattus norvegicus [20] = organism: Rattus norvegicus; assay type: functional; settings: dose 20 mg/kg
# Rattus norvegicus [21] = organism: Rattus norvegicus; assay type: functional; settings: dose 20 mg/kg; remark: listed apart in the source
# Rattus norvegicus [22] = organism: Rattus norvegicus; assay type: functional; settings: dose 20 mg/kg; remark: listed apart in the source
# Rattus norvegicus [23] = organism: Rattus norvegicus; assay type: functional; settings: dose 20 mg/kg; remark: listed apart in the source
# Rattus norvegicus [24] = organism: Rattus norvegicus; assay type: functional; settings: dose 20 mg/kg; remark: listed apart in the source
# Rattus norvegicus [25] = organism: Rattus norvegicus; assay type: functional; settings: dose 20 mg/kg; remark: listed apart in the source
# Rattus norvegicus [26] = organism: Rattus norvegicus; assay type: functional; settings: dose 20 mg/kg; remark: listed apart in the source
# Rattus norvegicus [27] = organism: Rattus norvegicus; assay type: functional; settings: dose 11.4 mg/kg
# Rattus norvegicus [28] = organism: Rattus norvegicus; assay type: functional; settings: dose 11.4 mg/kg; remark: listed apart in the source
# Rattus norvegicus [29] = organism: Rattus norvegicus; assay type: functional; settings: dose 11.4 mg/kg; remark: listed apart in the source
# Rattus norvegicus [30] = organism: Rattus norvegicus; assay type: functional
# Rattus norvegicus [31] = organism: Rattus norvegicus; assay type: functional; settings: dose 11.4 mg/kg; remark: listed apart in the source
# Rattus norvegicus [32] = organism: Rattus norvegicus; assay type: functional; settings: dose 11.4 mg/kg; remark: listed apart in the source
# Rattus norvegicus [33] = organism: Rattus norvegicus; assay type: functional; settings: dose 11.4 mg/kg; remark: listed apart in the source
# Rattus norvegicus [34] = organism: Rattus norvegicus; settings: Heart right ventricle; remark: listed apart in the source
# Rattus norvegicus [35] = organism: Rattus norvegicus; assay type: functional; settings: dose 11.5 mg/kg
# Rattus norvegicus [36] = organism: Rattus norvegicus; assay type: functional; settings: dose 11.5 mg/kg; remark: listed apart in the source
# Rattus norvegicus [37] = organism: Rattus norvegicus; assay type: functional; settings: dose 11.5 mg/kg; remark: listed apart in the source
# Rattus norvegicus [38] = organism: Rattus norvegicus; assay type: functional; settings: dose 11.5 mg/kg; remark: listed apart in the source
# Rattus norvegicus [39] = organism: Rattus norvegicus; assay type: functional; settings: dose 11.5 mg/kg; remark: listed apart in the source
# Rattus norvegicus [40] = organism: Rattus norvegicus; assay type: functional; settings: dose 11.5 mg/kg; remark: listed apart in the source
# Rattus norvegicus [41] = organism: Rattus norvegicus; assay type: functional; settings: dose 11.5 mg/kg; remark: listed apart in the source
# Rattus norvegicus [42] = organism: Rattus norvegicus; assay type: functional; settings: dose 10 mg/kg; remark: listed apart in the source
# Rattus norvegicus [43] = organism: Rattus norvegicus; assay type: functional; settings: dose 10 mg/kg; remark: listed apart in the source
# Rattus norvegicus [44] = organism: Rattus norvegicus; assay type: functional; settings: dose 10 mg/kg; remark: listed apart in the source
# Rattus norvegicus [45] = organism: Rattus norvegicus; assay type: functional; settings: dose 10 mg/kg; remark: listed apart in the source
# Rattus norvegicus [46] = organism: Rattus norvegicus; assay type: functional; settings: dose 10 mg/kg; remark: listed apart in the source
# Rattus norvegicus [47] = organism: Rattus norvegicus; assay type: functional; settings: dose 10 mg/kg; remark: listed apart in the source
# Rattus norvegicus [48] = organism: Rattus norvegicus; assay type: functional; settings: dose 10.2 mg/kg
# Rattus norvegicus [49] = organism: Rattus norvegicus; assay type: functional; settings: dose 10.2 mg/kg; remark: listed apart in the source
# Rattus norvegicus [50] = organism: Rattus norvegicus; assay type: functional; settings: dose 10.2 mg/kg; remark: listed apart in the source
# Rattus norvegicus [51] = organism: Rattus norvegicus; assay type: functional; settings: dose 10.2 mg/kg; remark: listed apart in the source
# Rattus norvegicus [52] = organism: Rattus norvegicus; assay type: functional; settings: dose 10.2 mg/kg; remark: listed apart in the source
# Rattus norvegicus [53] = organism: Rattus norvegicus; assay type: functional; settings: dose 10.2 mg/kg; remark: listed apart in the source
# Rattus norvegicus [54] = organism: Rattus norvegicus; assay type: functional; settings: dose 10.2 mg/kg; remark: listed apart in the source
# Rattus norvegicus [55] = organism: Rattus norvegicus; assay type: functional; settings: dose 10.9 mg/kg
# Rattus norvegicus [56] = organism: Rattus norvegicus; assay type: functional; settings: dose 10.9 mg/kg; remark: listed apart in the source
# Rattus norvegicus [57] = organism: Rattus norvegicus; assay type: functional; settings: dose 10.9 mg/kg; remark: listed apart in the source
# Rattus norvegicus [58] = organism: Rattus norvegicus; assay type: functional; settings: dose 10.9 mg/kg; remark: listed apart in the source
# Rattus norvegicus [59] = organism: Rattus norvegicus; assay type: functional; settings: dose 10.9 mg/kg; remark: listed apart in the source
# Rattus norvegicus [60] = organism: Rattus norvegicus; assay type: functional; settings: dose 10.9 mg/kg; remark: listed apart in the source
# Rattus norvegicus [61] = organism: Rattus norvegicus; assay type: functional; settings: dose 10.9 mg/kg; remark: listed apart in the source
# Rattus norvegicus [62] = organism: Rattus norvegicus; settings: Heart right ventricle; remark: listed apart in the source
structure (smiles),measurement,setting,value
CCC(=O)O[C@H]1CC[C@H]2[C@@H]3CCC4=CC(=O)CC[C@]4(C)[C@H]3CC[C@]12C.O=C1/C(=C/c2ccncc2)CCc2ccccc21,Tumors with CR,Rattus norvegicus [1],20%
same,Tumors with CR,Rattus norvegicus [2],20%
same,Tumors with CR,Rattus norvegicus [3],40%
same,Tumors with CR,Rattus norvegicus [4],20%
same,No. of tumors,Rattus norvegicus [5],30
same,No. of tumors,Rattus norvegicus [6],6
same,Change of tumor area,Rattus norvegicus [7],2%
COc1cccc2c1CCC(Cc1ccncc1)C2=O (configuration not stated),IC50,Aromatase,8 µM
same,Plasma-E2 concentration,Rattus norvegicus [8],882 pg/mL
same,Plasma-E2 concentration,Rattus norvegicus [9],851 pg/mL
same,Plasma-E2 concentration,Rattus norvegicus [10],3950 pg/mL
same,Plasma-E2 concentration,Rattus norvegicus [11],990 pg/mL
same,Plasma-E2 concentration,Rattus norvegicus [12],639 pg/mL
same,Plasma-E2 concentration,Rattus norvegicus [13],894 pg/mL
same,Plasma-E2 concentration,Rattus norvegicus [14],1460 pg/mL and 902 pg/mL
same,Plasma-E2 concentration,Rattus norvegicus [15],576 pg/mL
same,Plasma-E2 concentration,Rattus norvegicus [16],458 pg/mL
same,Plasma-E2 concentration,Rattus norvegicus [17],1040 pg/mL
same,Plasma-E2 concentration,Rattus norvegicus [18],542 pg/mL
same,Plasma-E2 concentration,Rattus norvegicus [19],1250 pg/mL
CCC(=O)O[C@H]1CC[C@H]2[C@@H]3CCC4=CC(=O)CC[C@]4(C)[C@H]3CC[C@]12C [TESTOSTERONE PROPIONATE],Tumors with CR,Rattus norvegicus [20],19%
same,Tumors with CR,Rattus norvegicus [21],25%
same,Tumors with CR,Rattus norvegicus [22],36%
same,No. of tumors,Rattus norvegicus [23],12
same,Tumors with CR,Rattus norvegicus [24],19%
same,No. of tumors,Rattus norvegicus [25],36
same,Change of tumor area,Rattus norvegicus [26],141%
CCC(=O)O[C@H]1CC[C@H]2[C@@H]3CCC4=CC(=O)CC[C@]4(C)[C@H]3CC[C@]12C.COc1cccc2c1CC/C(=C\c1ccncc1)C2=O,Tumors with CR,Rattus norvegicus [27],29%
same,Tumors with CR,Rattus norvegicus [28],11%
same,Tumors with CR,Rattus norvegicus [29],50%
same,Tumors with CR,Rattus norvegicus [30],11%
same,No. of tumors,Rattus norvegicus [31],28
same,No. of tumors,Rattus norvegicus [32],9
same,Change of tumor area,Rattus norvegicus [33],115%
CCC1(c2ccc(N)cc2)CCC(=O)NC1=O (configuration not stated),Plasma-E2 concentration,Rattus norvegicus [14],843 pg/mL and 500 pg/mL
same,Plasma-E2 concentration,Rattus norvegicus [15],272 pg/mL
same,Plasma-E2 concentration,Rattus norvegicus [34],164 pg/mL
CCC(=O)O[C@H]1CC[C@H]2[C@@H]3CCC4=CC(=O)CC[C@]4(C)[C@H]3CC[C@]12C.COc1cccc2c1CCC(Cc1ccncc1)C2=O,Tumors with CR,Rattus norvegicus [35],24%
same,Tumors with CR,Rattus norvegicus [36],29%
same,Tumors with CR,Rattus norvegicus [37],35%
same,No. of tumors,Rattus norvegicus [38],11
same,Tumors with CR,Rattus norvegicus [39],12%
same,No. of tumors,Rattus norvegicus [40],34
same,Change of tumor area,Rattus norvegicus [41],50%
CCC(=O)O[C@H]1CC[C@H]2[C@@H]3CCC4=CC(=O)CC[C@]4(C)[C@H]3CC[C@]12C.CCC1(c2ccc(N)cc2)CCC(=O)NC1=O,Tumors with CR,Rattus norvegicus [42],6%
same,Tumors with CR,Rattus norvegicus [43],17%
same,Tumors with CR,Rattus norvegicus [44],23%
same,Tumors with CR,Rattus norvegicus [45],54%
same,No. of tumors,Rattus norvegicus [46],35
same,No. of tumors,Rattus norvegicus [47],7
same,Change of tumor area,Rattus norvegicus [7],4%
O=C1c2cccc(O)c2CCC1Cc1ccncc1 (stereo in doubt; 12),IC50,Aromatase,2 µM
same,Plasma-E2 concentration,Rattus norvegicus [10],3700 pg/mL
same,Plasma-E2 concentration,Rattus norvegicus [18],472 pg/mL
O=C1/C(=C/c2ccncc2)CCc2c(O)cccc21,Plasma-E2 concentration,Rattus norvegicus [10],4040 pg/mL
same,Plasma-E2 concentration,Rattus norvegicus [18],524 pg/mL
CCC(=O)O[C@H]1CC[C@H]2[C@@H]3CCC4=CC(=O)CC[C@]4(C)[C@H]3CC[C@]12C.O=C1c2ccccc2CCC1Cc1ccncc1,Tumors with CR,Rattus norvegicus [48],13%
same,Tumors with CR,Rattus norvegicus [49],32%
same,No. of tumors,Rattus norvegicus [50],8
same,Tumors with CR,Rattus norvegicus [51],45%
same,Tumors with CR,Rattus norvegicus [52],10%
same,No. of tumors,Rattus norvegicus [53],31
same,Change of tumor area,Rattus norvegicus [54],41%
CCC(=O)O[C@H]1CC[C@H]2[C@@H]3CCC4=CC(=O)CC[C@]4(C)[C@H]3CC[C@]12C.O=C1c2cccc(O)c2CCC1Cc1ccncc1,Tumors with CR,Rattus norvegicus [55],27%
same,Tumors with CR,Rattus norvegicus [56],6%
same,Tumors with CR,Rattus norvegicus [57],45%
same,No. of tumors,Rattus norvegicus [58],3
same,Tumors with CR,Rattus norvegicus [59],21%
same,No. of tumors,Rattus norvegicus [60],33
same,Change of tumor area,Rattus norvegicus [61],61%
O=C1c2ccccc2CCC1Cc1ccncc1 (configuration not stated),Plasma-E2 concentration,Rattus norvegicus [10],3700 pg/mL
same,Plasma-E2 concentration,Rattus norvegicus [62],717 pg/mL

# Source: ChEMBL document CHEMBL1125863, “New aromatase inhibitors. Synthesis and biological activity of pyridyl-substituted tetralone derivatives” (J Med Chem, 1991)
